Laboratory results taken from patent publication US8278345B2, “Inhibitors of glutaminyl cyclase” (Probiodrug AG, priority 2006, dated 2012).

biological target: hQC (Homo sapiens, UniProt Q16769); assay: Inhibitor assay for glutaminyl cyclase activity (fluorometric, H-Gln-βNA / H-Gln-AMC); type: biochemical; conditions: compound from preparative synthesis, purified; read-out: IC50 hQC
How it was run: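 Ki values came from fitting progress curves to a competitive inhibition model; rapid screens used 4 mM inhibitor with substrate at KM. QC activity was read at 30 °C via auxiliary pyroglutamyl aminopeptidase releasing βNA (0.2 mM H-Gln-βNA, 0.2 M Tris pH 8.0, 20 mM EDTA) or AMC (0.05 M Tris pH 8.0, 5 mM EDTA).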

Chain of hQC (Q16769 29-361): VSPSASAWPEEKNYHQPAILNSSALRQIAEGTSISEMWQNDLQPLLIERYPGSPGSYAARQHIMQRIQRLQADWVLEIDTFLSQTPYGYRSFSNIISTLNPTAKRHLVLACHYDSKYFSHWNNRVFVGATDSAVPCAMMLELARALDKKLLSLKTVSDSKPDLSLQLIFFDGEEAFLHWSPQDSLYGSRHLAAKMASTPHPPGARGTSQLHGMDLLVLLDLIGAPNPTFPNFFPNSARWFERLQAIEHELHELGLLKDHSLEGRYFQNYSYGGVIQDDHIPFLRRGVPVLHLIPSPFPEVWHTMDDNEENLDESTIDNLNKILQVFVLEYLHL

IC50	SMILES
0.0045 µM	CC(C)CC(=O)C1=C(O)C(=O)N(c2ccc3[nH]cnc3c2)C1c1ccc2cccc(O)c2n1 (stereo not drawn) [Compound 327, 1-(1H-Benzoimidazol-5-yl)-3-hydroxy-5-(8-hydroxy-quinolin-2-yl)-4-(3-methyl-butyryl)-1,5-dihydro-pyrrol-2-one]
0.575 µM	O=C1C(O)=C(c2c[nH]c3ccccc23)C(c2cnc3ccccc3c2)N1c1ccc2[nH]cnc2c1 (stereo not drawn) [Compound 422, 1-(1H-Benzoimidazol-5-yl)-3-hydroxy-4-(1H-indol-3-yl)-5-quinolin-3-yl-1,5-dihydro-pyrrol-2-one]
0.0087 µM	CC(=O)C1=C(O)C(=O)N(c2ccc3[nH]cnc3c2)C1c1ccc2nsnc2c1 (stereo not drawn) [Compound 376, 4-Acetyl-1-(1H-benzoimidazol-5-yl)-5-benzo[c][1,2,5]thiadiazol-5-yl-3-hydroxy-1,5-dihydro-pyrrol-2-one]

same assay, conditions: read-out: IC50

SMILES	IC50
CCC1=C(O)C(=O)N(CCCn2ccnc2)C1Cc1ccccc1 (stereo not drawn) [Compound 242, 5-Benzyl-4-ethyl-3-hydroxy-1-(3-imidazol-1-yl-propyl)-1,5-dihydro-pyrrol-2-one]	2.2 µM
CC(C)C1=C(O)C(=O)N(CCCn2ccnc2)C1c1ccc2[nH]ccc2c1 (stereo not drawn) [Compound 58, 3-Hydroxy-1-(3-imidazol-1-yl-propyl)-5-(1H-indol-5-yl)-4-isopropyl-1,5-dihydro-pyrrol-2-one]	3.1 µM
CC1=C(O)C(=O)N(CCCn2ccnc2)C1c1c[nH]c2cc(C)ccc12 (stereo not drawn) [Compound 37, 3-Hydroxy-1-(3-imidazol-1-yl-propyl)-4-methyl-5-(6-methyl-1H-indol-3-yl)-1,5-dihydro-pyrrol-2-one]	0.4 µM
CCCCCC1C(C)=C(O)C(=O)N1CCCn1ccnc1 (stereo not drawn) [Compound 30, 3-Hydroxy-1-(3-imidazol-1-yl-propyl)-4-methyl-5-pentyl-1,5-dihydro-pyrrol-2-one]	0.4 µM
O=C1C(O)=C(c2ccc(O)cc2)C(c2cc(Cl)cc(Cl)c2O)N1CCCn1ccnc1 (stereo not drawn) [Compound 147, 5-(3,5-Dichloro-2-hydroxy-phenyl)-3-hydroxy-4-(4-hydroxy-phenyl)-1-(3-imidazol-1-yl-propyl)-1,5-dihydro-pyrrol-2-one]	0.04 µM
O=C1C(O)=C(c2c[nH]c3ccccc23)C(c2cnc3ccccc3c2)N1c1ccc2[nH]cnc2c1 (stereo not drawn) [Compound 422, 1-(1H-Benzoimidazol-5-yl)-3-hydroxy-4-(1H-indol-3-yl)-5-quinolin-3-yl-1,5-dihydro-pyrrol-2-one]	0.004 µM
O=C1C(O)=C(c2ccc(O)cc2)C(c2cccc(Cl)c2)N1CCCn1ccnc1 (stereo not drawn) [Compound 179, 5-(3-Chloro-phenyl)-3-hydroxy-4-(4-hydroxy-phenyl)-1-(3-imidazol-1-yl-propyl)-1,5-dihydro-pyrrol-2-one]	0.04 µM
Cc1ccc2c(C3C(c4c[nH]c5ccccc45)=C(O)C(=O)N3CCCn3ccnc3)c[nH]c2c1 (stereo not drawn) [Compound 130, 3-Hydroxy-1-(3-imidazol-1-yl-propyl)-4-(1H-indol-3-yl)-5-(6-methyl-1H-indol-3-yl)-1,5-dihydro-pyrrol-2-one]	1.3 µM
O=C1C(O)=C(c2c[nH]c3ccccc23)C(c2ccco2)N1CCCn1ccnc1 (stereo not drawn) [Compound 140, 5-Furan-2-yl-3-hydroxy-1-(3-imidazol-1-yl-propyl)-4-(1H-indol-3-yl)-1,5-dihydro-pyrrol-2-one]	0.4 µM
Cc1cccc(C2C(c3ccc(O)cc3)=C(O)C(=O)N2c2ccc3[nH]cnc3c2)c1 (stereo not drawn) [Compound 429, 1-(1H-Benzoimidazol-5-yl)-3-hydroxy-4-(4-hydroxy-phenyl)-5-m-tolyl-1,5-dihydro-pyrrol-2-one]	1.39 µM
CC(=O)C1=C(O)C(=O)N(c2ccc3[nH]cnc3c2)C1c1cccc(C)n1 (stereo not drawn) [Compound 330, 4-Acetyl-1-(1H-benzoimidazol-5-yl)-3-hydroxy-5-(6-methyl-pyridin-2-yl)-1,5-dihydro-pyrrol-2-one]	2.11 µM
CC1=C(O)C(=O)N(CCCn2ccnc2)C1c1c(O)ccc2ccccc12 (stereo not drawn) [Compound 42, 3-Hydroxy-5-(2-hydroxy-naphthalen-1-yl)-1-(3-imidazol-1-yl-propyl)-4-methyl-1,5-dihydro-pyrrol-2-one]	2.2 µM
CC(C)C1=C(O)C(=O)N(CCCn2ccnc2)C1C1CCC=CO1 (stereo not drawn) [Compound 66, 5-(3,4-Dihydro-2H-pyran-2-yl)-3-hydroxy-1-(3-imidazol-1-yl-propyl)-4-isopropyl-1,5-dihydro-pyrrol-2-one]	2.2 µM
CCCC(=O)C1=C(O)C(=O)N(c2ccc3[nH]cnc3c2)C1c1nccs1 (stereo not drawn) [Compound 254, 1-(1H-Benzoimidazol-5-yl)-4-butyryl-3-hydroxy-5-thiazol-2-yl-1,5-dihydro-pyrrol-2-one]	2.2 µM
O=C(C1=C(O)C(=O)N(c2ccc3[nH]cnc3c2)C1c1c[nH]cn1)C1CCCCC1 (stereo not drawn) [Compound 255, 1-(1H-Benzoimidazol-5-yl)-4-cyclohexanecarbonyl-3-hydroxy-5-(1H-imidazol-4-yl)-1,5-dihydro-pyrrol-2-one]	2.47 µM
O=C(C1=C(O)C(=O)N(c2ccc3[nH]cnc3c2)C1c1ccc(Cl)c(C(F)(F)F)c1)c1cc2ccccc2s1 (stereo not drawn) [Compound 257, 4-(Benzo[b]thiophene-2-carbonyl)-1-(1H-benzoimidazol-5-yl)-5-(4-chloro-3-trifluoromethyl-phenyl)-3-hydroxy-1,5-dihydro-pyrrol-2-one]	3.37 µM

Continued by falling IC50, values first:

IC50	SMILES
9.85 µM	CC(=O)C1=C(O)C(=O)N(c2ccc3[nH]cnc3c2)C1C1COC(C)(C)O1 (stereo not drawn) [Compound 295, 4-Acetyl-1-(1H-benzoimidazol-5-yl)-5-(2,2-dimethyl-[1,3]dioxolan-4-yl)-3-hydroxy-1,5-dihydro-pyrrol-2-one]
8.05 µM	CC(C)C1=C(O)C(=O)N(c2ccc3[nH]cnc3c2)C1c1c(F)ccc(Cl)c1F (stereo not drawn) [Compound 365, 1-(1H-Benzoimidazol-5-yl)-5-(3-chloro-2,6-difluoro-phenyl)-3-hydroxy-4-isopropyl-1,5-dihydro-pyrrol-2-one]
7.96 µM	CC(C)CC(=O)C1=C(O)C(=O)N(c2ccc3[nH]cnc3c2)C1c1cc[nH]n1 (stereo not drawn) [Compound 427, 1-(1H-Benzoimidazol-5-yl)-3-hydroxy-4-(3-methyl-butyryl)-5-(1H-pyrazol-3-yl)-1,5-dihydro-pyrrol-2-one]
7.69 µM	O=C(C1=C(O)C(=O)N(c2ccc3[nH]cnc3c2)C1C1CCOC1)C1CC1 (stereo not drawn) [Compound 317, 1-(1H-Benzoimidazol-5-yl)-4-cyclopropanecarbonyl-3-hydroxy-5-(tetrahydro-furan-3-yl)-1,5-dihydro-pyrrol-2-one]
6.07 µM	CC(C)C1=C(O)C(=O)N(c2ccc3[nH]cnc3c2)C1c1csc2ccccc12 (stereo not drawn) [Compound 275, 5-Benzo[b]thiophen-3-yl-1-(1H-benzoimidazol-5-yl)-3-hydroxy-4-isopropyl-1,5-dihydro-pyrrol-2-one]
5.8 µM	O=C1C(O)=C(c2cccc(O)c2)C(c2ccc(CO)o2)N1CCCn1ccnc1 (stereo not drawn) [Compound 17, 3-Hydroxy-5-(5-hydroxymethyl-furan-2-yl)-4-(3-hydroxy-phenyl)-1-(3-imidazol-1-yl-propyl)-1,5-dihydro-pyrrol-2-one]
4 µM	CC(C)CC(=O)C1=C(O)C(=O)N(c2ccc3[nH]cnc3c2)C1c1c[nH]cn1 (stereo not drawn) [Compound 461, 1-(1H-Benzoimidazol-5-yl)-3-hydroxy-5-(1H-imidazol-4-yl)-4-(3-methyl-butyryl)-1,5-dihydro-pyrrol-2-one]
2.83 µM	Cc1cc(C2C(c3cccc(O)c3)=C(O)C(=O)N2c2ccc3[nH]cnc3c2)oc1C (stereo not drawn) [Compound 307, 1-(1H-Benzoimidazol-5-yl)-5-(4,5-dimethyl-furan-2-yl)-3-hydroxy-4-(3-hydroxy-phenyl)-1,5-dihydro-pyrrol-2-one]
2.2 µM	CC1=C(O)C(=O)N(CCCn2ccnc2)C1C1CCC=CO1 (stereo not drawn) [Compound 35, 5-(3,4-Dihydro-2H-pyran-2-yl)-3-hydroxy-1-(3-imidazol-1-yl-propyl)-4-methyl-1,5-dihydro-pyrrol-2-one]
1.3 µM	CC1=C(O)C(=O)N(c2ccc3nc[nH]c3c2)C1c1cccc(F)c1F (stereo not drawn) [Compound 259, 1-(1H-Benzoimidazol-5-yl)-5-(2,3-difluoro-phenyl)-3-hydroxy-4-methyl-1,5-dihydro-pyrrol-2-one]
0.85 µM	CCCC(=O)C1=C(O)C(=O)N(c2ccc3[nH]cnc3c2)C1c1ccsc1 (stereo not drawn) [Compound 424, 1-(1H-Benzoimidazol-5-yl)-4-butyryl-3-hydroxy-5-thiophen-3-yl-1,5-dihydro-pyrrol-2-one]
0.4 µM	CCC1=C(O)C(=O)N(CCCn2ccnc2)C1c1ccc(O)cc1 (stereo not drawn) [Compound 251, 4-Ethyl-3-hydroxy-5-(4-hydroxy-phenyl)-1-(3-imidazol-1-yl-propyl)-1,5-dihydro-pyrrol-2-one]
0.4 µM	CCCCCC1=C(O)C(=O)N(CCCn2ccnc2)C1C1CC1 (stereo not drawn) [Compound 212, 5-Cyclopropyl-3-hydroxy-1-(3-imidazol-1-yl-propyl)-4-pentyl-1,5-dihydro-pyrrol-2-one]
0.31 µM	Cc1ccc2occ(C3C(c4ccc(O)cc4)=C(O)C(=O)N3c3ccc4[nH]cnc4c3)c(=O)c2c1 (stereo not drawn) [Compound 280, 1-(1H-Benzoimidazol-5-yl)-3-hydroxy-4-(4-hydroxy-phenyl)-5-(6-methyl-4-oxo-4H-chromen-3-yl)-1,5-dihydro-pyrrol-2-one]
0.04 µM	O=C1C(O)=C(c2c[nH]c3ccccc23)C(c2ccccc2O)N1CCCn1ccnc1 (stereo not drawn) [Compound 122, 3-Hydroxy-5-(2-hydroxy-phenyl)-1-(3-imidazol-1-yl-propyl)-4-(1H-indol-3-yl)-1,5-dihydro-pyrrol-2-one]
0.04 µM	CCCCC1C(c2ccc(O)cc2)=C(O)C(=O)N1CCCn1ccnc1 (stereo not drawn) [Compound 177, 5-Butyl-3-hydroxy-4-(4-hydroxy-phenyl)-1-(3-imidazol-1-yl-propyl)-1,5-dihydro-pyrrol-2-one]
0.04 µM	O=C1C(O)=C(c2c[nH]c3ccccc23)C(CO)N1CCCn1ccnc1 (stereo not drawn) [Compound 138, 3-Hydroxy-5-hydroxymethyl-1-(3-imidazol-1-yl-propyl)-4-(1H-indol-3-yl)-1,5-dihydro-pyrrol-2-one]
0.004 µM	CC(C)CC(=O)C1=C(O)C(=O)N(c2ccc3[nH]cnc3c2)C1c1ccc2cccc(O)c2n1 (stereo not drawn) [Compound 327, 1-(1H-Benzoimidazol-5-yl)-3-hydroxy-5-(8-hydroxy-quinolin-2-yl)-4-(3-methyl-butyryl)-1,5-dihydro-pyrrol-2-one]
0.004 µM	CC1=C(O)C(=O)N(c2ccc3[nH]cnc3c2)C1c1ccco1 (stereo not drawn) [Compound 426, 1-(1H-Benzoimidazol-5-yl)-5-furan-2-yl-3-hydroxy-4-methyl-1,5-dihydro-pyrrol-2-one]
0.004 µM	CC(=O)C1=C(O)C(=O)N(c2ccc3[nH]cnc3c2)C1c1ccc2nsnc2c1 (stereo not drawn) [Compound 376, 4-Acetyl-1-(1H-benzoimidazol-5-yl)-5-benzo[c][1,2,5]thiadiazol-5-yl-3-hydroxy-1,5-dihydro-pyrrol-2-one]
